Twelve molecules from patent US20230234967A1, “Fused Azole Heterocycles as AHR Antagonists” (Senda Biosciences, Inc., priority 2021, published 2023) can be followed below.

A value given as a limit tells only on which side of the number the result lay.

Tested on in the first data set: not listed separately
The data set can be described thus: Solubility Determination Assay (PBS pH 1.6 and pH 7.4). It is filed as physicochemical. As to conditions: PBS buffer, aqueous buffer, kinetic from dmso stock; PBS pH 1.6, 25° C., 2 hours shaking; read-out: Aq. Solubility at pH = 1.6. As for the experimental part:
Example 31: Solubility Determination Assay
The stock solutions of test compounds and control compound progesterone were prepared in DMSO at the concentrations of 10 mM. 15 μL of stock solution (10 mM) of each sample was placed in order into their proper 96-well rack. 485 μL of PBS pH 1.6 and pH 7.4 were added into each vial of the cap-less Solubility Sample plate. The assay was performed in singlet. One stir stick was added to each vial and then the vial was sealed using a molded PTFE/Silicone plug. The solubility sample plates were then transferred to the Eppendorf Thermomixer Comfort plate shaker and shaken at 25° C. at 1100 rpm for 2 hours. After completion of the 2 hours, plugs were removed and the stir sticks were removed using a big magnet. The samples from the Solubility Sample plate were transferred into the filter plate. Using the Vacuum Manifold, all the samples were filtered. An aliquot of 5 μL was taken from the filtrate followed by addition of 495 μL of a mixture of H2O and acetonitrile containing internal standard (1:1). A certain proportion of ultrapure water was used to dilute the diluent according to the peak shape. The dilution factor was changed according to the solubility values and the LC-MS signal response.
From the 10 mM DMSO STD plate, 6 μL was transferred into the remaining empty plate, and then 194 μL of DMSO were added to that plate to have a STD concentration of 300 μM. From the 300 μM DMSO STD plate, 5 μL were transferred into the remaining empty plate, and then 495 μL of a mixture of H2O and acetonitrile containing internal standard (1:1) were added to that plate to have a final STD concentration of 3 μM. A certain proportion of ultrapure water was used to dilute the diluent according to the peak shape. The concentrations of the standard samples were changed according to the LC-MS signal response.
The plate was placed into the well plate autosampler. The samples were evaluated by LC-MS/MS analysis.
All calculations were carried out using Microsoft Excel.
The filtrate was analyzed and quantified against a standard of known concentration using LC coupled with mass spectral peak identification and quantitation. Solubility values of the test compound and control compound were calculated as follows: […]
Any value of the compounds that was not within the specified limits was rejected and the experiment was repeated.
“+++” indicates a solubility value equal to or greater than […] “++” indicates a solubility value between 0.1 and 1 μM and “+” indicates a solubility value less than 0.1 μM.
In the case of `Cc1ccccc1-c1cc2ncc(NC(=O)c3ccnn3C)cc2[nH]1` [Product 49, 1-methyl-N-(2-(o-tolyl)-1H-pyrrolo[3,2-b]pyridin-6-yl)-1H-pyrazole-5-carboxamide], the solubility at 2 h is at least 1 µM.

The same data set, now with this note: PBS buffer, aqueous buffer, kinetic from dmso stock; PBS pH 7.4, 25° C., 2 hours shaking; read-out: Aq. Solubility at pH = 7.4.
In the case of `Cc1ccccc1-c1cc2ncc(NC(=O)c3ccnn3C)cc2[nH]1` [Product 49, 1-methyl-N-(2-(o-tolyl)-1H-pyrrolo[3,2-b]pyridin-6-yl)-1H-pyrazole-5-carboxamide], the solubility at 2 h was at least 1 µM.

Another data set has as its target T1, AHR (Homo sapiens, UniProt P35869).
T1 construct: other cell line with a DRE-luciferase reporter stably transfected; endogenous in cells; host or cells: Human HepG2 liver carcinoma AhR-Lucia reporter cells
T1 sequence (P35869 11-848): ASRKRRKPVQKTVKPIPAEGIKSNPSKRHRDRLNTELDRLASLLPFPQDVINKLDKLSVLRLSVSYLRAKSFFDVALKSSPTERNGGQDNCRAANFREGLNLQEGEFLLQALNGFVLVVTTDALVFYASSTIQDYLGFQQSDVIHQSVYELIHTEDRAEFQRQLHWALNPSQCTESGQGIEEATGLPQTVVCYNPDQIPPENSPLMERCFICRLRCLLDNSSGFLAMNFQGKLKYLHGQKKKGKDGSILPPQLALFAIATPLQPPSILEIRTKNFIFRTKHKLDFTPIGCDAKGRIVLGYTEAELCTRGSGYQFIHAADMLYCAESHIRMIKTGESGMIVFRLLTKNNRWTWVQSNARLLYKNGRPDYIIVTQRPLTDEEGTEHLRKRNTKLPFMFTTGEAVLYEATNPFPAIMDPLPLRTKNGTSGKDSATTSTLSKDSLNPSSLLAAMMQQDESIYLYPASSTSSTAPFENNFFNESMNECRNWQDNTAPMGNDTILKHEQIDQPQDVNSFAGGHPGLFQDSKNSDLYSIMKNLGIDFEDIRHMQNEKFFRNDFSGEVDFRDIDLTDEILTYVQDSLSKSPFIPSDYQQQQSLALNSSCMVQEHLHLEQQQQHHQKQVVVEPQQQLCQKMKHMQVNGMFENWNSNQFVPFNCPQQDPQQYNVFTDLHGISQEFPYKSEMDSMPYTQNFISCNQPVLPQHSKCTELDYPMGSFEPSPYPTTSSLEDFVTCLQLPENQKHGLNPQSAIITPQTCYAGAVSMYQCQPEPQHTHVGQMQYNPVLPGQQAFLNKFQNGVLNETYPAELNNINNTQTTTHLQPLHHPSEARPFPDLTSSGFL
The data set can be described thus: DRE-Luciferase Reporter Assay (HepG2 AhR-Lucia reporter cells). It is filed as cell-based. As to conditions: AHR activating ligand at its EC50, luciferase read-out, read-out: HEPG2 Luc IC50. An excerpt: Example 27: DRE-Luciferase Reporter Assay
AHR binds to Dioxin Responsive Elements (DRE) upstream of genes that it activates. One measure of AHR activity is activation of a reporter gene, such as luciferase, downstream of one or multiple DRE elements. Luciferase activity will reflect activation and inhibition of AHR in the cells expressing his reporter. 20000 Human HepG2 liver carcinoma—AhR-Lucia reporter cells or Human HT29 colon adenocarcinoma—AhR reporter cells or other cell line with a DRE-luciferase reporter stably transfected were plated in Eagle's Minimal Essential Medium, 10% heat-inactivated FBS, 1×non-essential amino acids Pen-Strep (10,000 U/mL) and Normocin (100 ug/mL) in plates (96-well, 384-well or other plates) and incubated overnight at 37° C. in a CO2 incubator and treated with and without AhR antagonists at a log dilution starting at 100 uM.
After 1 hr that cells were plated an AHR activating ligand, such as TCDD, kynurenine, ITE (2-(1H-indole-3-ylcarbonyl)-4-thiazolecarboxylic methyl ester), VAF347, BNF (beta-naphthoflavone), FICZ (6-formylindolo(3,2-b) carbazole) or other AHR ligands at their specific EC50 concentration, were added to the cells with or without AHR antagonist.
Cells were incubated for 24 or 48 hours or another time point and then, supernatant was analyzed for determination of luciferase activity as a read-out of the AHR activation or inhibition. Luciferase was measured with the commercial kit QUANTI-Luc™ assay solution kit from Invivogen following the manufacturer's instructions.
The level of luciferase with only agonist ligand added was the maximum signal while the luciferase with […] was the minimum signal. IC50 values were determined as the concentration which inhibits half of the luciferase activity. “A” indicates an IC50 value less than 100 nM, “B” indicates an IC50 between 100 and 500 nM, “C” indicates an IC50 above 500 nM.
In general terms: In a reporter assay the amount or activity of a reporter protein is the signal.
Take `CC(=O)N(C)c1ccccc1-c1ccc2nc(NC(=O)c3ccnn3C)sc2n1` [Product 36, 1-methyl-N-(5-(2-(N-methylacetamido)phenyl)thiazolo[5,4-b]pyridin-2-yl)-1H-pyrazole-5-carboxamide]: the IC50 was above 500 nM.

Turning to `CN(CCO)c1ccccc1-c1ccc2nc(NC(=O)c3ccnn3C)sc2n1` [Product 37, N-(5-(2-((2-hydroxyethyl)(methyl)amino)phenyl)thiazolo[5,4-b]pyridin-2-yl)-1-methyl-1H-pyrazole-5-carboxamide], the IC50 lay within 100 to 500 nM. Same read-out and setting: the figure for `Cc1ccccc1-c1ccc2nc(NC(=O)N3CCN(C)CC3)sc2n1` [Product 40, 4-methyl-N-(5-(o-tolyl)thiazolo[5,4-b]pyridin-2-yl)piperazine-1-carboxamide] is above 500 nM; for `Cc1ccccc1-c1ccc2sc(NC(=O)c3ccnn3C)nc2n1` [Product 41, 1-methyl-N-(5-(o-tolyl)thiazolo[4,5-b]pyridin-2-yl)-1H-pyrazole-5-carboxamide] it is above 500 nM; for `Cc1ccccc1-c1cc2sc(NC(=O)c3ccnn3C)nc2cn1` [Product 42, 1-methyl-N-(6-(o-tolyl)thiazolo[4,5-c]pyridin-2-yl)-1H-pyrazole-5-carboxamide] it is above 500 nM. On the same count and under the same terms, to `Cc1ccccc1-c1ccc2nc(NC(=O)c3ccnn3C)oc2n1` [Product 43, 1-methyl-N-(5-(o-tolyl)oxazolo[5,4-b]pyridin-2-yl)-1H-pyrazole-5-carboxamide] belongs above 500 nM; to `Cn1nccc1C(=O)Nc1cnc2cc(-c3ccccc3C(F)(F)F)[nH]c2c1` [Product 44, 1-methyl-N-(2-(2-(trifluoromethyl)phenyl)-1H-pyrrolo[3,2-b]pyridin-6-yl)-1H-pyrazole-5-carboxamide], 100 to 500 nM; to `Cn1ncnc1C(=O)Nc1cnc2cc(-c3ccccc3C(F)(F)F)[nH]c2c1` [Product 45], below 100 nM. On the same count and under the same terms, to `Cc1ccccc1-c1cc2ncc(NC(=O)c3ncnn3C)cc2[nH]1` [Product 46] belongs 100 to 500 nM; to `Cc1ccccc1-c1cc2cnc(NC(=O)c3ccnn3C)nc2[nH]1` [Product 48], 100 to 500 nM; to `Cc1ccccc1-c1cc2ncc(NC(=O)c3ccnn3C)cc2[nH]1` [Product 49, 1-methyl-N-(2-(o-tolyl)-1H-pyrrolo[3,2-b]pyridin-6-yl)-1H-pyrazole-5-carboxamide], 100 to 500 nM. As for `Cc1ccccc1-c1cc2ncc(NC(=O)c3ccnn3C)nc2[nH]1` [Product 50, 1-methyl-N-(6-(o-tolyl)-5H-pyrrolo[2,3-b]pyrazin-3-yl)-1H-pyrazole-5-carboxamide], the IC50 was above 500 nM.

For orientation: solubility means the concentration that dissolves in the medium under given conditions. By IC50 is commonly meant the concentration that gives 50% inhibition.
